From patent publication US11572590B2, “Methods for evaluating tumor cell spheroids using 3D microfluidic cell culture device” (Dana-Farber Cancer Institute, Inc., priority 2017, dated 2023)
Like-named read-outs stand apart in the source and are kept apart here.

Columns and labels:
Test in all cases: SelectScreen Kinase Profiling, single point inhibition and IC50 for off-target kinases
Assay type in all cases: biochemical
off-target kinases [1] = biological target: T1, off-target kinases (Homo sapiens, UniProt P36896); conditions: ACVR1B (ALK4); Cmpd1 1000 μM; ATP Km app; ZLYTE
T1 sequence (P36896 24-505): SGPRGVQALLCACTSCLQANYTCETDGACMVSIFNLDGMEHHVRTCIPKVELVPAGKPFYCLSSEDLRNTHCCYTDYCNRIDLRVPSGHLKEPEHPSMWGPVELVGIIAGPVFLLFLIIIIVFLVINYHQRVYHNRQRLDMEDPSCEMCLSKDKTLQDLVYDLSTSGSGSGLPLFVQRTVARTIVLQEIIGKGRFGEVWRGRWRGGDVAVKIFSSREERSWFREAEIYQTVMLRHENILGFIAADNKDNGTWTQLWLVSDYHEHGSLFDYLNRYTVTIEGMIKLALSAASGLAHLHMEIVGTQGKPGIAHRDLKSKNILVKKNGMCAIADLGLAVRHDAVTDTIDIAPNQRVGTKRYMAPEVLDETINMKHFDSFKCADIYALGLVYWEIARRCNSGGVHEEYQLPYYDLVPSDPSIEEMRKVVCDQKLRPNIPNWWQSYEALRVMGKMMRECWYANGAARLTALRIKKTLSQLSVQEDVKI

off-target kinases [2] = biological target: off-target kinases (Homo sapiens, UniProt O75116); conditions: ROCK2, ZLYTE, ATP Km app
Sequence of off-target kinases (Homo sapiens, UniProt O75116) (O75116 whole entry): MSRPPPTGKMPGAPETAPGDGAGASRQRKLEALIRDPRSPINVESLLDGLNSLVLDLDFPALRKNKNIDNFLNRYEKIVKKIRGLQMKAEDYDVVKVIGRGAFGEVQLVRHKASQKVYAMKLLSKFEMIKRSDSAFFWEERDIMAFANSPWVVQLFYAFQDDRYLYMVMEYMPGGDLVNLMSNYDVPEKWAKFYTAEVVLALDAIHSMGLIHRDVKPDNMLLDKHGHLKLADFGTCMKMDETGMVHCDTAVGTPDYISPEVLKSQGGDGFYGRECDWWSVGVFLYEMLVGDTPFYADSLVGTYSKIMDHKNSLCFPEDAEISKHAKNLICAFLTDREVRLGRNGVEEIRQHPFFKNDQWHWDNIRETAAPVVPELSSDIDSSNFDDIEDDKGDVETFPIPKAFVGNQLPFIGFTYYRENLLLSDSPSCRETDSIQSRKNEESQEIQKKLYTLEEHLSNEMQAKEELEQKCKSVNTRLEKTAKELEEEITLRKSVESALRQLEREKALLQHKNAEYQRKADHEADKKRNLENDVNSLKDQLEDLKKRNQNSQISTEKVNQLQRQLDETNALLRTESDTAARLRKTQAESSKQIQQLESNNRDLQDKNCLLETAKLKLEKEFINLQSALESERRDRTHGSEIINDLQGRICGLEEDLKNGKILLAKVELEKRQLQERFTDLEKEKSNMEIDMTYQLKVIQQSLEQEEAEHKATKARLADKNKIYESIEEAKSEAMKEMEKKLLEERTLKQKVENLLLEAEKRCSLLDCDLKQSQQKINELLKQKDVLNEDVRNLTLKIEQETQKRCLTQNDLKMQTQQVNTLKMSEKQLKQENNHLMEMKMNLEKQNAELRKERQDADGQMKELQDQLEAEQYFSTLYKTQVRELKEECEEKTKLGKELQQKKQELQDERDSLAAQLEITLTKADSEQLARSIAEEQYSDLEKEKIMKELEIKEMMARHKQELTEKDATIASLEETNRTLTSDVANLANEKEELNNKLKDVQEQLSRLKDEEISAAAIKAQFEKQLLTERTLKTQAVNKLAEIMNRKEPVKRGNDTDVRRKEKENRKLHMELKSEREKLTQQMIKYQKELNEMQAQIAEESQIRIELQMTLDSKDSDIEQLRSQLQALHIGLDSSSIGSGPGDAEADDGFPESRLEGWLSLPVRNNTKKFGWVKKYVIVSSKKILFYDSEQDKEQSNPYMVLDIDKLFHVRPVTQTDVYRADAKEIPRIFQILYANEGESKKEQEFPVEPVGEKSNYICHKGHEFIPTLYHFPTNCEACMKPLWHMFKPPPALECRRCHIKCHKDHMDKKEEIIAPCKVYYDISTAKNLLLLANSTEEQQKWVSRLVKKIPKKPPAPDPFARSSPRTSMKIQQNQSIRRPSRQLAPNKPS

off-target kinases [3] = biological target: T2, off-target kinases (Homo sapiens, UniProt P46734); conditions: MAP2K3 (MEK3), LanthaScreen Binding
T2 sequence (P46734 1-347): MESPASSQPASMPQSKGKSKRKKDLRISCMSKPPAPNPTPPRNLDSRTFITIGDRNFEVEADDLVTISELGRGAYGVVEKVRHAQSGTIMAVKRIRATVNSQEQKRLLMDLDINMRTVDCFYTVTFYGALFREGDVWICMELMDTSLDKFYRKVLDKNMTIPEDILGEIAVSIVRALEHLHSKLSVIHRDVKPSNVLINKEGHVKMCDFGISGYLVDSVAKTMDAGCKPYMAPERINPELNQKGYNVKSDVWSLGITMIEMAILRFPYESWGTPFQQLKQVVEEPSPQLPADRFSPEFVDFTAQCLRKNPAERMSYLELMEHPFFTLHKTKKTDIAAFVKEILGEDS

off-target kinases [4] = biological target: T3, off-target kinases (Homo sapiens, UniProt Q9Y2U5); conditions: MAP3K2 (MEKK2), LanthaScreen Binding
T3 sequence (Q9Y2U5 1-619): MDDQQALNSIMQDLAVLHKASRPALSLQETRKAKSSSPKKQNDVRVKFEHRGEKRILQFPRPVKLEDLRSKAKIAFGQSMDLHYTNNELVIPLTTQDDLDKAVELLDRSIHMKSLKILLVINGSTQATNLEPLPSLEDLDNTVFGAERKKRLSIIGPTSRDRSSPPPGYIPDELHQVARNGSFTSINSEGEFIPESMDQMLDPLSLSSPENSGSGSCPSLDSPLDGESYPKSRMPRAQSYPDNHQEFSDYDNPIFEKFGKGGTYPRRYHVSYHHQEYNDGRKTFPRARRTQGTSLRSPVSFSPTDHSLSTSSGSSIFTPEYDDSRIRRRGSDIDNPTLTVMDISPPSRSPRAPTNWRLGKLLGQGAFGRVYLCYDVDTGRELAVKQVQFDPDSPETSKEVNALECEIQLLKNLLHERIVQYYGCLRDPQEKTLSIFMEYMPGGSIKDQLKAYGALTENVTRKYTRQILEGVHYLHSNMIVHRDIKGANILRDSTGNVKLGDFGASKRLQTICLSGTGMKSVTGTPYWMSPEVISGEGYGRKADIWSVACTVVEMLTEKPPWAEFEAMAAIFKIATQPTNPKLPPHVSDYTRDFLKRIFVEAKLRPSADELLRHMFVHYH

off-target kinases [5] = biological target: off-target kinases (Homo sapiens, UniProt P00519, H396P); conditions: ABL1 H396P, LanthaScreen Binding

N#Cc1cc(-c2ncnc(Nc3ccc(N4CCN(C5COC5)CC4)cc3)n2)ccc1OC1CCOCC1 [Compound 1, 5-(4-((4-(4-(oxetan-3-yl)piperazin-1-yl)phenyl)amino)-1,3,5-triazin-2-yl)-2-((tetrahydro-2H-pyran-4-yl)oxy)benzonitrile]
% Inhibition 1 (off-target kinases [1]): −10%
% Inhibition 2 (off-target kinases [1]): −4%
% Inhibition Avg (off-target kinases [1]): −7%
inhibition (off-target kinases [2]; read-out: % Inhibition 1): 12%
inhibition (off-target kinases [2]; read-out: % Inhibition 2): 14%
inhibition (off-target kinases [2]; read-out: % Inhibition Avg): 13%
inhibition (off-target kinases [3]; read-out: % Inhibition 1): 5%
inhibition (off-target kinases [3]; read-out: % Inhibition 2): 8%
inhibition (off-target kinases [3]; read-out: % Inhibition Avg): 7%
inhibition (off-target kinases [4]; read-out: % Inhibition 1): 11%
inhibition (off-target kinases [4]; read-out: % Inhibition 2): 9%
inhibition (off-target kinases [4]; read-out: % Inhibition Avg): 10%
inhibition (off-target kinases [5]; read-out: % Inhibition 1): 58%
inhibition (off-target kinases [5]; read-out: % Inhibition 2): 60%
inhibition (off-target kinases [5]; read-out: % Inhibition Avg): 59%
